Assays:
Format in all cases: in vivo
[1] = tested on: Kochia (Kochia scoparia); assay: Test A preemergence; conditions: for Plant response rating, Kochia: 125 g ai/ha; for Kochia plant response rating (0 to 100 scale, 0 is no effect, 100 is complete control): 500 g ai/ha, visual injury approx. 10 d
Procedure, shortened: (§1)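 Compounds were formulated in a non-phytotoxic solvent mixture with surfactant and applied as a preemergence directed soil spray after seeding, or sprayed postemergence over plants 2 to 10 cm tall at the one- to two-leaf stage. Evaluation after about 10 d compared treated with untreated controls, using a scale from 0 (no effect) to 100 (complete control).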

[2] = tested on: barnyardgrass (Echinochloa crus-galli); assay: Test A preemergence; conditions: for Plant response rating, Barnyardgrass: 125 g ai/ha; for Barnyardgrass plant response rating (0 to 100 scale, 0 is no effect, 100 is complete control): 500 g ai/ha, visual injury approx. 10 d
Procedure, shortened: as §1

[3] = tested on: giant foxtail (Setaria faberii); assay: Test A preemergence; conditions: for Plant response rating, Foxtail, Giant: 125 g ai/ha; for Foxtail, Giant plant response rating (0 to 100 scale, 0 is no effect, 100 is complete control): 500 g ai/ha, visual injury approx. 10 d
Procedure, shortened: as §1

[4] = tested on: pigweed (Amaranthus retroflexus); assay: Test A preemergence; conditions: for Plant response rating, Pigweed: 125 g ai/ha; for Pigweed plant response rating (0 to 100 scale, 0 is no effect, 100 is complete control): 500 g ai/ha, visual injury approx. 10 d
[5] = tested on: ragweed (common ragweed, Ambrosia elatior); assay: Test A preemergence; conditions: for Plant response rating, Ragweed: 125 g ai/ha; for Ragweed plant response rating (0 to 100 scale, 0 is no effect, 100 is complete control): 500 g ai/ha, visual injury approx. 10 d
Procedure, shortened: as §1

[6] = tested on: ryegrass, Italian (Italian ryegrass, Lolium multiflorum); assay: Test A preemergence; conditions: for Plant response rating, Ryegrass, Italian: 125 g ai/ha; for Ryegrass, Italian plant response rating (0 to 100 scale, 0 is no effect, 100 is complete control): 500 g ai/ha, visual injury approx. 10 d
Procedure, shortened: as §1

[7] = tested on: Galium (catchweed bedstraw, Galium aparine); assay: Test A postemergence; conditions: for Galium plant response rating: 125 g ai/ha, visual injury rating on 0 to 100 scale (0 no effect, 100 complete control), approx. 10 d; for Plant response rating, Galium: 500 g ai/ha
Procedure, shortened: as §1

[8] = tested on: Kochia (Kochia scoparia); assay: Test A postemergence; conditions: for Kochia plant response rating: 125 g ai/ha, visual injury rating on 0 to 100 scale (0 no effect, 100 complete control), approx. 10 d; for Plant response rating, Kochia: 500 g ai/ha
Procedure, shortened: as §1

[9] = tested on: barnyardgrass (Echinochloa crus-galli); assay: Test A postemergence; conditions: for Barnyardgrass plant response rating: 125 g ai/ha, visual injury rating on 0 to 100 scale (0 no effect, 100 complete control), approx. 10 d; for Plant response rating, Barnyardgrass: 500 g ai/ha
Procedure, shortened: as §1

[10] = tested on: blackgrass (Alopecurus myosuroides); assay: Test A postemergence; conditions: for Blackgrass plant response rating: 125 g ai/ha, visual injury rating on 0 to 100 scale (0 no effect, 100 complete control), approx. 10 d; for Plant response rating, Blackgrass: 500 g ai/ha
Procedure, shortened: as §1

[11] = tested on: corn (Zea mays); assay: Test A postemergence; conditions: for Corn plant response rating: 125 g ai/ha, visual injury rating on 0 to 100 scale (0 no effect, 100 complete control), approx. 10 d; for Plant response rating, Corn: 500 g ai/ha
Procedure, shortened: as §1

[12] = tested on: giant foxtail (Setaria faberii); assay: Test A postemergence; conditions: for Foxtail, Giant plant response rating: 125 g ai/ha, visual injury rating on 0 to 100 scale (0 no effect, 100 complete control), approx. 10 d; for Plant response rating, Foxtail, Giant: 500 g ai/ha
Procedure, shortened: as §1

[13] = tested on: pigweed (Amaranthus retroflexus); assay: Test A postemergence; conditions: for Pigweed plant response rating: 125 g ai/ha, visual injury rating on 0 to 100 scale (0 no effect, 100 complete control), approx. 10 d; for Plant response rating, Pigweed: 500 g ai/ha
Procedure, shortened: as §1

[14] = tested on: ragweed (common ragweed, Ambrosia elatior); assay: Test A postemergence; conditions: for Ragweed plant response rating: 125 g ai/ha, visual injury rating on 0 to 100 scale (0 no effect, 100 complete control), approx. 10 d; for Plant response rating, Ragweed: 500 g ai/ha
Procedure, shortened: as §1

[15] = tested on: ryegrass, Italian (Italian ryegrass, Lolium multiflorum); assay: Test A postemergence; conditions: for Ryegrass, Italian plant response rating: 125 g ai/ha, visual injury rating on 0 to 100 scale (0 no effect, 100 complete control), approx. 10 d; for Plant response rating, Ryegrass, Italian: 500 g ai/ha
Procedure, shortened: as §1

[16] = tested on: wheat (Triticum aestivum); assay: Test A postemergence; conditions: for Wheat plant response rating: 125 g ai/ha, visual injury rating on 0 to 100 scale (0 no effect, 100 complete control), approx. 10 d; for Plant response rating, Wheat: 500 g ai/ha
Procedure, shortened: as §1

[17] = tested on: barnyardgrass (Echinochloa crus-galli); assay: Test B flooded paddy test; conditions: Flood, 250 g ai/ha; 0 to 100 scale where 0 is no effect and 100 is complete control; 13 to 15 d
Procedure, shortened: (§2)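 Evaluation by eye, against controls, occurred 13–15 d post-treatment in a greenhouse, using a 0 (no effect) to 100 (complete control) scale. Application was into the paddy water, 3 cm deep over the soil, on 2-leaf plants.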

[18] = tested on: ducksalad (Heteranthera limosa); assay: Test B flooded paddy test; conditions: Flood, 250 g ai/ha; 0 to 100 scale where 0 is no effect and 100 is complete control; 13 to 15 d
Procedure, shortened: as §2

[19] = tested on: rice (Oryra sativa); assay: Test B flooded paddy test; conditions: Flood, 250 g ai/ha; 0 to 100 scale where 0 is no effect and 100 is complete control; 13 to 15 d
Procedure, shortened: as §2

[20] = tested on: sedge, umbrella (small-flower umbrella sedge, Cyperus difformis); assay: Test B flooded paddy test; conditions: Flood, 250 g ai/ha; 0 to 100 scale where 0 is no effect and 100 is complete control; 13 to 15 d
Procedure, shortened: as §2

[21] = preemergence, 0 to 100 scale (0 no effect, 100 complete control)
[22] = postemergence, 0 to 100 scale, 0 no effect, 100 complete control
[23] = Preemergence, visual injury after approximately 10 d, 0 to 100 scale where 0 is no effect and 100 is complete control
[24] = Postemergence, 0 to 100 scale where 0 is no effect and 100 is complete control

| SMILES | Kochia plant response rating (0 to 100 scale, 0 is no effect, 100 is complete control) ([1]; Preemergence) | Barnyardgrass plant response rating (0 to 100 scale, 0 is no effect, 100 is complete control) ([2]; Preemergence) | Foxtail, Giant plant response rating (0 to 100 scale, 0 is no effect, 100 is complete control) ([3]; Preemergence) | Pigweed plant response rating (0 to 100 scale, 0 is no effect, 100 is complete control) ([4]; Preemergence) | Ragweed plant response rating (0 to 100 scale, 0 is no effect, 100 is complete control) ([5]; Preemergence) | Ryegrass, Italian plant response rating (0 to 100 scale, 0 is no effect, 100 is complete control) ([6]; Preemergence) | Galium plant response rating ([7]; postemergence) | Kochia plant response rating ([8]; postemergence) | Barnyardgrass plant response rating ([9]; postemergence) | Blackgrass plant response rating ([10]; postemergence) | Corn plant response rating ([11]; postemergence) | Foxtail, Giant plant response rating ([12]; postemergence) | Pigweed plant response rating ([13]; postemergence) | Ragweed plant response rating ([14]; postemergence) | Ryegrass, Italian plant response rating ([15]; postemergence) | Wheat plant response rating ([16]; postemergence) | Plant response rating, Barnyardgrass [17] | Plant response rating, Ducksalad [18] | Plant response rating, Rice [19] | Plant response rating, Sedge, Umbrella [20] | also measured |
| --- | --- | --- | --- | --- | --- | --- | --- | --- | --- | --- | --- | --- | --- | --- | --- | --- | --- | --- | --- | --- | --- |
| O=C1NCC(c2ccc(Br)cc2)C1C(=O)Nc1cccc(F)c1F (stereo not drawn) [Compound 446] | 50 | 90 | 90 | 60 | 50 | 60 | 50 | 60 | 80 | 50 | 20 | 90 | 50 | 0 | 20 | 0 | 75 | 100 | 0 | 0 | Plant response rating, Kochia [1, 21]: 50; Plant response rating, Barnyardgrass [2, 21]: 90; Plant response rating, Foxtail, Giant [3, 21]: 90; Plant response rating, Pigweed [4, 21]: 40; Plant response rating, Ragweed [5, 21]: 50; Plant response rating, Ryegrass, Italian [6, 21]: 20; Plant response rating, Galium [7, 22]: 50; Plant response rating, Kochia [8, 22]: 60; Plant response rating, Barnyardgrass [9, 22]: 90; Plant response rating, Blackgrass [10, 22]: 50; Plant response rating, Corn [11, 22]: 30; Plant response rating, Foxtail, Giant [12, 22]: 90; Plant response rating, Pigweed [13, 22]: 60; Plant response rating, Ragweed [14, 22]: 20; Plant response rating, Ryegrass, Italian [15, 22]: 30; Plant response rating, Wheat [16, 22]: 50 |
| Cc1ccc(C2CN(C)C(=O)C2C(=O)Nc2ccccc2F)cc1F (stereo not drawn) [Compound 465] | 80 | 100 | 100 | 70 | 70 | 70 | 60 | 50 | 90 | 40 | 80 | 90 | 0 | 0 | 60 | 60 | 80 | 100 | 0 | 0 | Plant response rating, Kochia [1, 21]: 80; Plant response rating, Barnyardgrass [2, 21]: 90; Plant response rating, Foxtail, Giant [3, 21]: 100; Plant response rating, Pigweed [4, 21]: 50; Plant response rating, Ragweed [5, 21]: 40; Plant response rating, Ryegrass, Italian [6, 21]: 70; Plant response rating, Galium [7, 22]: 60; Plant response rating, Kochia [8, 22]: 60; Plant response rating, Barnyardgrass [9, 22]: 90; Plant response rating, Blackgrass [10, 22]: 70; Plant response rating, Corn [11, 22]: 90; Plant response rating, Foxtail, Giant [12, 22]: 90; Plant response rating, Pigweed [13, 22]: 20; Plant response rating, Ragweed [14, 22]: 30; Plant response rating, Ryegrass, Italian [15, 22]: 70; Plant response rating, Wheat [16, 22]: 70 |
| CN1CC(c2cccc(OC(F)F)c2)C(C(=O)Nc2ccccc2S(C)(=O)=O)C1=O (stereo not drawn) [Compound 523] | 80 | 90 | 90 | 90 | 80 | 90 | 50 | 20 | 90 | 50 | 20 | 80 | 30 | 50 | 30 | 0 | 50 | 50 | 0 | 0 | Plant response rating, Kochia [1, 23]: 0; Plant response rating, Barnyardgrass [2, 23]: 90; Plant response rating, Foxtail, Giant [3, 23]: 90; Plant response rating, Pigweed [4, 23]: 80; Plant response rating, Ragweed [5, 23]: 60; Plant response rating, Ryegrass, Italian [6, 23]: 40; Plant response rating, Galium [7, 24]: 60; Plant response rating, Kochia [8, 24]: 50; Plant response rating, Barnyardgrass [9, 24]: 90; Plant response rating, Blackgrass [10, 24]: 70; Plant response rating, Corn [11, 24]: 80; Plant response rating, Foxtail, Giant [12, 24]: 90; Plant response rating, Pigweed [13, 24]: 60; Plant response rating, Ragweed [14, 24]: 50; Plant response rating, Ryegrass, Italian [15, 24]: 70; Plant response rating, Wheat [16, 24]: 70 |
